Data: patent US20120183579A1, “COMPOUNDS FOR INFLAMMATION AND IMMUNE-RELATED USES” (Synta Pharmaceuticals Corp., priority 2008, published 2012)
Counter-ions that a name gives are not always drawn.

system: IL-2; assay: Inhibition of IL-2 production (Jurkat cells activated with PHA, ELISA); type: cell-based; details: Homo sapiens, Jurkat, Jurkat/PHA/1% FBS; numeric values
Protocol: Jurkat cells were placed in a 96 well plate (0.5 million cells per well in 1% FBS medium), and then a test compound of this invention was added at different concentrations. After 10 minutes, the cells were activated with PHA (final concentration 2.5 μg/mL) and incubated for 20 hours at 37° C. under 5% CO2. The final volume was 200 μL. Following incubation, the cells were centrifuged, and the supernatants collected and stored at −70° C. prior to assaying for IL-2 production. A commercial ELISA kit (IL-2 Eli-pair, Diaclone Research, Besancon, France) was used to detect production of IL-2, from which dose response curves were obtained. The IC50 value was calculated as the concentration at which 50% of maximum IL-2 production after stimulation was inhibited versus a non-stimulation control.

| SMILES | IC50 [nM] |
| --- | --- |
| CC1=C(c2ccc(NC(=O)c3cnccc3C)cc2)CN(c2ncccc2F)CC1 [Compound 36, N-(4-(1-(3-fluoropyridin-2-yl)-4-methyl-1,2,5,6-tetrahydropyridin-3-yl)phenyl)-4-methylnicotinamide] | 24 |
| CC1=C(c2ccc(NC(=O)c3cccc(F)c3C)nc2)CN(c2nnn(C)n2)CC1 [Compound 37, 3-fluoro-2-methyl-N-(5-(4-methyl-1-(2-methyl-2H-tetrazol-5-yl)-1,2,5,6-tetrahydropyridin-3-yl)pyridin-2-yl) benzamide] | 24 |
| CC1=C(c2cnc(NC(=O)c3c(F)cccc3F)cn2)CN(c2ccncc2F)CC1 [Compound 38, 2,6-difluoro-N-(5-(1-(3-fluoropyridin-4-yl)-4-methyl-1,2,5,6-tetrahydropyridin-3-yl)pyrazin-2-yl)benzamide] | 26 |
| CC1=C(c2ccc(NC(=O)c3sccc3C)cc2)CN(c2nccs2)CC1 [Compound 39, 3-methyl-N-(4-(4-methyl-1-(thiazol-2-yl)-1,2,5,6-tetrahydropyridin-3-yl)phenyl)thiophene-2-carboxamide] | 27 |
| CC1=C(c2cnc(NC(=O)c3cc(F)ccc3F)cn2)CN(c2ncccc2F)CC1 [Compound 40, 2,5-difluoro-N-(5-(1-(3-fluoropyridin-2-yl)-4-methyl-1,2,5,6-tetrahydropyridin-3-yl)pyrazin-2-yl)benzamide] | 27 |
| CC1=C(c2ccc(NC(=O)c3ccncc3C)cc2)CN(c2ncccc2F)CC1 [Compound 41, N-(4-(1-(3-fluoropyridin-2-yl)-4-methyl-1,2,5,6-tetrahydropyridin-3-yl)phenyl)-3-methylisonicotinamide] | 28 |
| CC1=C(c2cnc(NC(=O)c3cccc(F)c3C)cn2)CN(c2ncccc2F)CC1 [Compound 42, 3-fluoro-N-(5-(1-(3-fluoropyridin-2-yl)-4-methyl-1,2,5,6-tetrahydropyridin-3-yl)pyrazin-2-yl)-2-methylbenzamide] | 28 |
| CC1=C(c2ccc(NC(=O)c3c(F)cc(F)cc3F)cc2)CN(c2ncccc2C#N)CC1 [Compound 43, N-(4-(1-(3-cyanopyridin-2-yl)-4-methyl-1,2,5,6-tetrahydropyridin-3-yl)phenyl)-2,4,6-trifluorobenzamide] | 31 |
| CC1=C(c2cnc(NC(=O)c3c(F)cc(Br)cc3F)cn2)CN(c2ncccc2F)CC1 [Compound 44, 4-bromo-2,6-difluoro-N-(5-(1-(3-fluoropyridin-2-yl)-4-methyl-1,2,5,6-tetrahydropyridin-3-yl)pyrazin-2-yl) benzamide] | 31 |
| CC1=C(c2ccc(NC(=O)c3c(C)cccc3F)cc2)CN(c2nnn(C)n2)CC1 [Compound 45, 2-fluoro-6-methyl-N-(4-(4-methyl-1-(2-methyl-2H-tetrazol-5-yl)-1,2,5,6-tetrahydropyridin-3-yl)phenyl) benzamide] | 33 |
| COc1cccc(F)c1C(=O)Nc1cnc(C2=C(C)CCN(c3ncccc3F)C2)cn1 [Compound 46, 2-fluoro-N-(5-(1-(3-fluoropyridin-2-yl)-4-methyl-1,2,5,6-tetrahydropyridin-3-yl)pyrazin-2-yl)-6-methoxybenzamide] | 35 |
| CCc1cnc(N2CCC(C)=C(c3cnc(NC(=O)c4c(F)cccc4F)cn3)C2)s1 [Compound 47, N-(5-(1-(5-ethylthiazol-2-yl)-4-methyl-1,2,5,6-tetrahydropyridin-3-yl)pyrazin-2-yl)-2,6-difluorobenzamide hydrochloride] | 35 |
| CC1=C(c2cnc(NC(=O)c3c(F)cccc3Cl)cn2)CN(c2ncc(C)s2)CC1 [Compound 48, 2-chloro-6-fluoro-N-(5-(4-methyl-1-(5-methylthiazol-2-yl)-1,2,5,6-tetrahydropyridin-3-yl)pyrazin-2-yl)benzamide] | 36 |
| CC1=C(c2cnc(NC(=O)c3cccc(F)c3Cl)cn2)CN(c2ncccc2F)CC1 [Compound 49, 2-chloro-3-fluoro-N-(5-(1-(3-fluoropyridin-2-yl)-4-methyl-1,2,5,6-tetrahydropyridin-3-yl)pyrazin-2-yl)benzamide] | 36 |
| CC1=C(c2cnc(NC(=O)c3c(C)cccc3F)cn2)CN(c2ncc(C)s2)CC1 [Compound 50, 2-fluoro-6-methyl-N-(5-(4-methyl-1-(5-methylthiazol-2-yl)-1,2,5,6-tetrahydropyridin-3-yl)pyrazin-2-yl)benzamide] | 37 |
| CC1=C(c2ccc(NC(=O)c3c(Cl)cncc3Cl)cc2)CN(c2ccccn2)CC1 [Compound 51, 3,5-dichloro-N-(4-(4-methyl-1-(pyridin-2-yl)-1,2,5,6-tetrahydropyridin-3-yl)phenyl)isonicotinamide] | 37 |
| CC1=C(c2cnc(NC(=O)c3cccc(F)c3C)cn2)CN(c2ncc(C)s2)CC1 [Compound 52, 3-fluoro-2-methyl-N-(5-(4-methyl-1-(5-methylthiazol-2-yl)-1,2,5,6-tetrahydropyridin-3-yl)pyrazin-2-yl)benzamide hydrochloride] | 40 |
| CC1=C(c2ccc(NC(=O)c3cc(F)ccc3C)nc2)CN(c2nnn(C)n2)CC1 [Compound 53, 5-fluoro-2-methyl-N-(5-(4-methyl-1-(2-methyl-2H-tetrazol-5-yl)-1,2,5,6-tetrahydropyridin-3-yl)pyridin-2-yl) benzamide] | 40 |
| CC1=C(c2ccc(NC(=O)c3c(F)cccc3F)cc2)CN(c2nc(Cl)cs2)CC1 [Compound 54, N-(4-(1-(4-chlorothiazol-2-yl)-4-methyl-1,2,5,6-tetrahydropyridin-3-yl)phenyl)-2,6-difluorobenzamide] | 40 |
| CC1=C(c2ccc(NC(=O)c3c(Cl)cncc3Cl)cc2)CN(c2ncccc2F)CC1 [Compound 55, 3,5-dichloro-N-(4-(1-(3-fluoropyridin-2-yl)-4-methyl-1,2,5,6-tetrahydropyridin-3-yl)phenyl)isonicotinamide] | 41 |
| Cn1nnc(N2CCC(Cl)=C(c3ccc(NC(=O)c4c(F)cccc4Cl)cc3)C2)n1 [Compound 56, 2-chloro-N-(4-(4-chloro-1-(2-methyl-2H-tetrazol-5-yl)-1,2,5,6-tetrahydropyridin-3-yl)phenyl)-6-fluorobenzamide] | 41 |
| CC1=C(c2ccc(NC(=O)c3c(C)cccc3Cl)cc2)CN(c2nnn(C)n2)CC1 [Compound 57, 2-chloro-6-methyl-N-(4-(4-methyl-1-(2-methyl-2H-tetrazol-5-yl)-1,2,5,6-tetrahydropyridin-3-yl)phenyl) benzamide] | 41 |
| CC1=C(c2ccc(NC(=O)c3c(F)cccc3F)cc2)CN(c2cnccn2)CC1 [Compound 58, 2,6-difluoro-N-(4-(4-methyl-1-(pyrazin-2-yl)-1,2,5,6-tetrahydropyridin-3-yl)phenyl)benzamide] | 44 |
| CC1=C(c2cnc(NC(=O)c3c(F)cccc3F)cn2)CN(c2nc(-c3cccnc3)cs2)CC1 [Compound 59, 2,6-difluoro-N-(5-(4-methyl-1-(4-(pyridin-3-yl)thiazol-2-yl)-1,2,5,6-tetrahydropyridin-3-yl)pyrazin-2-yl)benzamide] | 44 |
| COc1cc(F)c(C(=O)Nc2cnc(C3=C(C)CCN(c4ncccc4F)C3)cn2)c(F)c1 [Compound 60, 2,6-difluoro-N-(5-(1-(3-fluoropyridin-2-yl)-4-methyl-1,2,5,6-tetrahydropyridin-3-yl)pyrazin-2-yl)-4-methoxybenzamide] | 46 |
